{"source": "patent US12678546B2", "about": "“Systems, methods, and apparatus for modeling and optimizing dialysis effects” (INNCELEREX, priority 2022, dated 2026)", "key": {"[1]": {"experiment": "Ex-vivo simulated dialysis treatment (CRRT mimic) of bovine plasma containing creatinine", "format": "in vitro ADME", "conditions": "HF1400 membrane; 5 min after start of ex-vivo dialysis"}, "[2]": {"experiment": "Ex-vivo simulated dialysis treatment (CRRT mimic) of bovine plasma containing creatinine", "format": "in vitro ADME", "conditions": "for Reduction in creatinine on the arterial side / Reduction in creatinine on the venous side / Total amount of creatinine in effluent, of total amount in the reservoir at time zero: at 60 minutes; for Change in creatinine concentration, venous vs. arterial side, mean over timepoints: the values are: percent change venous vs arterial; for C0 at 0 min: bovine, prior to starting ex-vivo dialysis, read-out: Starting creatinine concentration at time zero", "from_the_text": "FIG. 1 illustrates an exemplary system 100 and configuration for a simulated treatment on a drug or analyte of interest. The exemplary system 100 of FIG. 1 was designed and built to mimic Continuous Renal Replacement Therapy (CRRT). CRRT is a method of slower, continuous dialysis to allow solute and fluid homeostasis. CRRT […] intermittent hemodialysis and peritoneal dialysis. It is typically performed through pump-driven venovenous extracorporeal circuits and acts as renal support through blood purification to allow solute and fluid homeostasis. CRRT is often chosen for renal replacement in hemodynamically unstable patients, and it is often employed in the intensive care unit. With a slower rate of fluid removal, CRRT theoretically causes less hypotension than other dialysis techniques. Another advantage of CRRT for these patients is that they often require a large volume of fluid administration, including medications and parenteral nutrition, and CRRT can prevent an overloaded state.\nThe blood or plasma is introduced to the blood side 156 of the filter. Dialysate fluid that has no drug (nor analyte of interest) is pumped through the other side 157 of the filter. This process creates a movement of the analyte of interest from the blood side 156 of the filter to the dialysate side 157 and ultimately excretion into an effluent container 107 (simulating drug removal). The pumps 110, 111, 112, 113 are set at typical clinical levels (e.g., 300-500 mL/min) for pump speed and are optimized based on performance criteria (and by trial and error) for the specific treatment simulation.\nIn some embodiments, the system 100 is run for 1 hour, and during this time samples (500 μL each) are taken at the respective sample points 103, 104, 105, 106 at time 0, 10, 20, 30, 40 and 60 minutes after starting the pumps 110, 111, 112, 113. These samples are assayed for the analyte of interest. These are the numerical treatment simulation results that are used in silico (described below) to scale and to predict human dialysis situations (i.e., create a virtual patient) and also to extend the predictions to many other dialysis settings (e.g., different filter types, flow rates, type of fluids pumped in, etc.) that are used in different clinical conditions.\nAs shown in an exemplary algorithm and schematic of the invention in FIGS. 3A-3C, the treatment simulation and in-silico modeling, simulations, and extrapolation are used to determine the effects of dialysis on a drug or analyte of interest. In blocks A and B of FIG. 3A, bovine or human plasma or blood is spiked with a drug or an exogenous analyte existing in plasma or blood. In block C, pumps, tubing, flow rates, filters, temperature, pH, dialysis or replacement solutions and apparatus are configured to mimic a type of CRRT (Continuous Renal Replacement Therapy) or IHD (Intermittent Hemodialysis). In block D, the system is run for approximately 1-2 hours. In block E, multiple samples from different ports 103, 104, 105, 106 (arterial, venous, effluent, and blood/plasma reservoir) are taken during the treatment simulation and the sampling information is recorded. In block F, the samples for the drug/analyte collected are assayed. In block G, the amount of the drug that is removed by the treatment simulation is determined, and rate and ratio parameters for the drug removal from plasma or blood are calculated.\nOne analyte was creatinine used as control, and the other was drug X (a drug under development). The Cybernetic Dialysis™ system 200 measures how much of drug X and how much creatinine is removed by dialysis and (referring back to FIG. 1) includes water bath 101 with shaking tray with thermal control set at 37° C. […]"}, "[3]": {"conditions": "AN69 M150 membrane, 10 min after start of ex-vivo dialysis"}, "[4]": {"conditions": "AN69 M150 membrane, 20 min after start of ex-vivo dialysis"}, "[5]": {"conditions": "AN69 M150 membrane, 30 min after start of ex-vivo dialysis"}, "[6]": {"conditions": "AN69 M150 membrane, 40 min after start of ex-vivo dialysis"}, "[7]": {"conditions": "AN69 M150 membrane, 60 min after start of ex-vivo dialysis"}, "[8]": {"conditions": "HF1400 membrane, 10 min after start of ex-vivo dialysis"}, "[9]": {"conditions": "HF1400 membrane, 20 min after start of ex-vivo dialysis"}, "[10]": {"conditions": "HF1400 membrane, 30 min after start of ex-vivo dialysis"}, "[11]": {"conditions": "HF1400 membrane, 40 min after start of ex-vivo dialysis"}, "[12]": {"conditions": "HF1400 membrane, 60 min after start of ex-vivo dialysis"}}, "note": "Like-named read-outs stand apart in the source and are kept apart here."}
{"smiles": "CN1CC(=O)NC1=N", "note": "[creatinine]", "values": [{"measurement": "Creatinine concentration, Arterial", "setting": "[1]", "result": 8.675, "unit": "µg/mL"}, {"measurement": "Creatinine concentration, Venous", "setting": "[1]", "result": 5.41, "unit": "µg/mL"}, {"measurement": "Creatinine concentration, Arterial", "setting": "[2]; [3]", "result": 7.088, "unit": "µg/mL"}, {"measurement": "Creatinine concentration, Venous", "setting": "[2]; [3]", "result": 5.545, "unit": "µg/mL"}, {"measurement": "Creatinine concentration, Arterial", "setting": "[2]; [4]", "result": 6.53, "unit": "µg/mL"}, {"measurement": "Creatinine concentration, Venous", "setting": "[2]; [4]", "result": 5.216, "unit": "µg/mL"}, {"measurement": "Creatinine concentration, Arterial", "setting": "[2]; [5]", "result": 5.191, "unit": "µg/mL"}, {"measurement": "Creatinine concentration, Venous", "setting": "[2]; [5]", "result": 4.353, "unit": "µg/mL"}, {"measurement": "Creatinine concentration, Arterial", "setting": "[2]; [6]", "result": 4.145, "unit": "µg/mL"}, {"measurement": "Creatinine concentration, Venous", "setting": "[2]; [6]", "result": 3.706, "unit": "µg/mL"}, {"measurement": "Creatinine concentration, Arterial", "setting": "[2]; [7]", "result": 3.444, "unit": "µg/mL"}, {"measurement": "Creatinine concentration, Venous", "setting": "[2]; [7]", "result": 2.909, "unit": "µg/mL"}, {"measurement": "Reduction in creatinine on the arterial side", "setting": "[2]; AN69 M150 membrane", "result": 60, "unit": "%"}, {"measurement": "Creatinine concentration, Arterial", "setting": "[2]; AN69 M150 membrane, time point 0 min, bovine plasma", "result": 8.581, "unit": "µg/mL"}, {"measurement": "Creatinine concentration, Arterial", "setting": "[2]; [8]", "result": 8.306, "unit": "µg/mL"}, {"measurement": "Creatinine concentration, Venous", "setting": "[2]; [8]", "result": 6.355, "unit": "µg/mL"}, {"measurement": "Creatinine concentration, Arterial", "setting": "[2]; [9]", "result": 6.174, "unit": "µg/mL"}, {"measurement": "Creatinine concentration, Venous", "setting": "[2]; [9]", "result": 5.052, "unit": "µg/mL"}, {"measurement": "Creatinine concentration, Arterial", "setting": "[2]; [10]", "result": 5.857, "unit": "µg/mL"}, {"measurement": "Creatinine concentration, Venous", "setting": "[2]; [10]", "result": 4.214, "unit": "µg/mL"}, {"measurement": "Creatinine concentration, Arterial", "setting": "[2]; [11]", "result": 5.261, "unit": "µg/mL"}, {"measurement": "Creatinine concentration, Venous", "setting": "[2]; [11]", "result": 3.782, "unit": "µg/mL"}, {"measurement": "Creatinine concentration, Arterial", "setting": "[2]; [12]", "result": 3.82, "unit": "µg/mL"}, {"measurement": "Creatinine concentration, Venous", "setting": "[2]; [12]", "result": 3.18, "unit": "µg/mL"}, {"measurement": "Change in creatinine concentration, venous vs. arterial side, mean over timepoints", "setting": "[2]; HF1400 membrane, FIG. 7", "result": -25.4, "unit": "%"}, {"measurement": "Reduction in creatinine on the arterial side", "setting": "[2]; HF1400 membrane", "result": 56, "unit": "%"}, {"measurement": "Reduction in creatinine on the venous side", "setting": "[2]; HF1400 membrane", "result": 63, "unit": "%"}, {"measurement": "Total amount of creatinine in effluent, of total amount in the reservoir at time zero", "setting": "[2]; HF1400 membrane", "result": 66.3, "unit": "%"}, {"measurement": "Creatinine concentration, Arterial", "setting": "[2]; HF1400 membrane, time point 0 min, bovine plasma", "result": 8.581, "unit": "µg/mL"}, {"measurement": "Change in creatinine concentration, venous vs. arterial side, mean over timepoints", "setting": "[2]; M150 AN69 membrane, FIG. 5", "result": -16.8, "unit": "%"}, {"measurement": "Reduction in creatinine on the venous side", "setting": "[2]; M150 AN69 membrane", "result": 66, "unit": "%"}, {"measurement": "Total amount of creatinine in effluent, of total amount in the reservoir at time zero", "setting": "[2]; M150 AN69 membrane", "result": 68.0, "unit": "%"}, {"measurement": "Total amount of creatinine (at time zero) remaining in the membrane cartridge and associated tubing", "setting": "[2]; both membrane types (M150 AN69 and HF1400)", "result": "about 5%"}, {"measurement": "C0 at 0 min", "setting": "[2]; AN69 M150 membrane", "result": 8370, "unit": "ng/mL"}, {"measurement": "C0 at 0 min", "setting": "[2]; HF1400 membrane", "result": 8580, "unit": "ng/mL"}]}
